Reference: patent US10183032B2, “Methods for treating bacterial infection” (Ball State Innovation Corporation, priority 2012, dated 2019)

Legend:
actin stress fibers = test: Actin stress fiber depolymerization in HUVEC during S. aureus infection; type: cell-based, human; conditions: 18-20 h pretreatment, S. aureus 1 h
Method: (§1) FIG. 8A is an image depicting ML 141 limiting actin stress fiber depolymerization during infection. Human umbilical vein endothelial cells (HUVEC) were incubated with ML 141 or with the vehicle control polyethylene glycol (PEG) 18-20 h prior to infection with Staphylococcus aureus (1 h). Actin was detected using Alexa Fluor 488 phalloidin. Arrows indicate intact actin stress fibers. Arrowhead indicates cell lacking actin stress fibers. 100 cells/treatment were evaluated from randomly selected fields. Data are presented as the % of cells in which actin stress fibers were not detected. Scale bar is 50 μm.
as §1, with “8B” for “8A”, “RSM 06” for “ML 141”, “200” for “Arrows indicate intact actin stress fibers. Arrowhead indicates cell lacking actin stress fibers. 100”
as §1, with “8C” for “8A”, “RSM 16” for “ML 141”, “200” for “Arrows indicate intact actin stress fibers. Arrowhead indicates cell lacking actin stress fibers. 100”
HUVEC are plated at 1×10^5 cells/ml into 35 mm glass-bottom dishes (MatTek, Ashland, Mass.) are coated with Attachment Factor, are pretreated, and are infected (1.2×10^8 CFU) as described above. […] Alexa 488 is excited by the 488 nanommeter Ar laser line and is detected using a 505-530 nanometer bandpass filter. […] Maximum pixel projections from the Z-stacks are generated and are analyzed for actin morphology.

Staphylococcus aureus [1] = test: Staphylococcus aureus host cell invasion assay in HUVEC, flow cytometry; type: cell-based; conditions: HUVEC; for inhibition of invasion compared with ML 141 (Table 1): 10 μM, flow cytometry; for activity at 10 µM: Staphylococcus aureus, 1 h, read-out: Internalized bacteria (% control ± SEM), Structural analog
Method: In one embodiment, human umbilical vein endothelial cells (HUVEC, Life Technologies) are cultured in M200 medium supplemented with LSGS. RAW 264.7 cells (American Type Culture Collection, ATCC, Manassas, Va.) are cultured in RPMI supplemented with 10% FBS and L-glutamine. All cell types are maintained at 5% CO2, 37° C., in 75 cm^2 vented cap flasks (Thermo-Fisher). For assays, cultured cells are plated at 1×10^5 cells/ml in 35 mm culture dishes coated with Attachment Factor. The next day, cells are pretreated in culture medium containing the vehicle control or ML 141. For compound delivery, ML 141 first is suspended into DMSO or into PEG at a concentration of 5 mM. The 5 mM solution is diluted to 1 mM in the solvent and then diluted to the final concentration for each experiment in either serum-containing or serum-free medium. For vehicle control treatment, the same volume of PEG or DMSO as that of ML 141 is added to medium. The following day, the invasion assay is performed. For the shorter duration experiments, compound is added on the same day as the invasion assay, 1 hour prior to bacteria.
In another embodiment, HUVEC (Millipore, Billerica, Mass.) are cultured in EndoGRO LS Complete Media (Millipore) and are maintained at 5% CO2, 37° C., in 75 cm^2 vented cap flasks (Thermo-Fisher). For the invasion assay, cultured cells are plated at 1×10^4 cells/ml in 96-well culture dishes coated with Attachment Factor. The next day, cells are pretreated in culture medium containing the vehicle control, ML 141, or ML 141 structural analog. For compound delivery, ML 141 and structural analogs first are suspended into PEG at a concentration of 5 mM. The 5 mM solution is diluted to 1 mM in the solvent and then is diluted to the final concentration for each experiment in serum containing medium. For vehicle control treatment, the same volume of PEG as that of ML 141 or of ML 141 structural analog is added to the medium. The following day, the invasion assay is performed. Bacteria are added directly to medium containing vehicle control, ML 141, or the ML 141 structural analog.
Two days prior to the assay, TSB is inoculated with S. aureus (American Type Culture Collection #29213) and incubated overnight (225 rpm, 37° C.). Bacteria are subcultured the next day into fresh TSB. On the day of the assay, bacteria are pelleted (10000×g, 37° C., 3 min), are washed in saline, are pelleted as above, are resuspended in saline, then fluorescently labeled by incubation with rabbit anti-mouse IgG Alexa Fluor 488 (final concentration 8 μg/ml, RT, 20 min). Protein A, a S. aureus cell surface protein, avidly binds IgG thereby labeling the bacteria. Labeled bacteria are washed twice as above and are resuspended to 3×10^8 CFU/ml in saline. Host cells are incubated with the bacteria for 1 hour (1.2×10^8 CFU/ml for same-day recovery, 5×10^6 for recovery after 48 hours, 1.4×10^7 CFU/ml; 5% CO2, 37° C.). Following infection, extracellular bacteria are removed by extensive washes with PBS and incubation of the host cells with antimicrobials that have limited mammalian membrane permeability (lysostaphin, 20 μg/ml and gentamicin, 50 μg/ml; 45 min for same-day recovery studies, 48 hours for 2-day recovery studies; 5% CO2, 37° C.). To detect the level of infection using flow cytometry, cells that have been infected with fluorescently-labeled bacteria are washed extensively with PBS, lifted from 96-well plate by incubation with trypsin, washed extensively in FACS buffer (2% BSA/0.1% sodium azide/PBS), fixed (FACS buffer containing 0.74% formaldehyde), and are counted using an Accuri flow cytometer (BD, Franklin Lakes, N.J.). They are also lifted from culture dishes using cell scrapers, pelleted, fixed (1% BSA/0.74% formaldehyde/PBS), and are counted using an Accuri flow cytometer. For enumeration of the infecting bacteria, intracellular bacteria are released from host cells using 1% saponin/PBS (20 min, 5% CO2, 37° C.) and serial dilutions are plated on TSA (16 hours, 37° C.). […]

[2] = test system: Human umbilical vein endothelial cells; test: Cytotoxicity by propidium iodide exclusion, HUVEC; type: cell-based; conditions: HUVEC pretreated 18-20 h
Staphylococcus aureus [3] = test: Assessment of bactericidal activity (HUVEC media); type: cell-based; conditions: 1.2 × 10^8 CFU S. aureus, 1 h in HUVEC media; 10 μM
Method: FIG. 6B illustrates that neither cytotoxicity nor bactericidal activity is detected. Cultures of Staphylococcus aureus that had been incubated with the vehicle control DMSO or with ML 141 (1 hour, 37° C., 225 rpm) were serially diluted, plated onto blood agar, and incubated (18 hours, 37° C.). Colonies were enumerated and colony forming units (CFU)/ml determined. CFU/ml were not different amongst the groups (p>0.05 by t-test; n=2/treatment). […]

CDC42 = CDC42 (Homo sapiens, UniProt P60953); test: BODIPY-FL-GTP binding to CDC42
Chain of CDC42 (P60953 whole entry): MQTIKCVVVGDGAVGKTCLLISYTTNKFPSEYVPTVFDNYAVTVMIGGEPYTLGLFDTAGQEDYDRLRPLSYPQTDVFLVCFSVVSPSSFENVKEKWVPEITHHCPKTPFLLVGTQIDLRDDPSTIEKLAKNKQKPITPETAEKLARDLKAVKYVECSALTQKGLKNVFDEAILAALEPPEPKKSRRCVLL

SMILES | depolymerization of actin stress fibers during infection (actin stress fibers) | inhibition of invasion compared with ML 141 (Table 1) (Staphylococcus aureus [1]) | activity at 10 µM (Staphylococcus aureus [1]) [%] | Mean fluorescence intensity (×10^4 ± SEM), Compound (10 μM) [2] | CFU (×10^8 ± SEM), Compound (10 μM) (Staphylococcus aureus [3]) | IC50 (CDC42) [µM]
COc1ccc(C2=NN(c3ccc(S(N)(=O)=O)cc3)C(c3ccc4c(c3)OCO4)C2)cc1 (stereo not drawn) [RSM 06] | limited actin depolymerization | inhibited invasion more than ML 141 | 23 ± 1 | 2.8 ± 0.1 ×10^4 | 4.9 ± 1.6 ×10^8 CFU | 10.1
COc1ccc(C2=NN(c3ccc(S(N)(=O)=O)cc3)C(c3ccc(OC)c(OC)c3)C2)cc1 (stereo not drawn) [RSM 16] | limited actin depolymerization | inhibited invasion more than ML 141 | 63 ± 4 | 1.4 ± 0.2 ×10^4 | 8.9 ± 1.9 ×10^8 CFU | 3.7
